Reference: patent US11655207B2, “Pharmaceutically acceptable salt of alkylcarbamoyl naphthalenyloxy octenoylhydroxy amide or of derivative thereof and method for preparing same” (CRYSTALGENOMICS, INC., priority 2017, dated 2023)
In brackets after ≈: the same amount, converted by molar mass. Where two headings read alike, the source gives them in different places. Blank lines part the entries; values can stand above or below the compound they belong to.

What was measured:
[1] = Change in appearance of the salts at room temperature for 24 hours; format: physicochemical; conditions: for Initial appearance: dried material; for Appearance (stored at R.T. for 24 hrs) / change in appearance (text summary of Table 4): room temperature, 24 hours
Protocol: In the case of the suspension and the gel, firstly it was vacuum dried under reduced pressure and secondly vacuum dried for 24 to 48 hours.

[2] = Stability evaluation: change in moisture content; format: physicochemical; conditions: open state, room temperature (20 to 25° C., 50% or less), 3 days vs initial; FIG. 2
Protocol: In order to evaluate the change in moisture content, the compounds according to Examples and Comparative Examples were stored in an open state at room temperature (20 to 25° C., 50% or less), and the change was measured by the difference between the initial moisture content and the moisture content after 3 days.

[3] = Stability evaluation: change in appearance under storage conditions; format: physicochemical
Source text: In order to evaluate the change in appearance of the compounds according to Comparative Examples and Examples, it was observed after storing each compound in accordance with the conditions shown in Table 6 below.

[4] = Stability evaluation: change in the amount of related substances; format: physicochemical; conditions: for change (increase) in the amount of related substances: open state, room temperature, 3 days, FIG. 3
[5] = Solubility of the compound of formula (1) in organic solvents (HPLC); format: physicochemical
[6] = 1 day, Acceleration (40±2° C. and 75±5% RH)
[7] = 1 day, Long-term (25±2° C. and 60±5% RH)
[8] = 1 day, Room temperature (20 to 25° C., 50% or less)

Structure (SMILES): Cl [Hydrochloric acid]
Initial appearance [1]: Gel-like
Appearance (stored at R.T. for 24 hrs) [1]: Gel-like

Structure (SMILES): O=C(O)CC(=O)O [Malonic acid]
Initial appearance [1]: Foam
Appearance (stored at R.T. for 24 hrs) [1]: Gel-like

Structure (SMILES): O=S(=O)(O)O [Sulfuric acid]
Initial appearance [1]: Gel-like
Appearance (stored at R.T. for 24 hrs) [1]: Gel-like

Structure (SMILES): O=C(O)CCCC(=O)O [Glutaric acid]
Initial appearance [1]: Powder
Appearance (stored at R.T. for 24 hrs) [1]: Gel-like

Structure (SMILES): CN(C)CCCNC(=O)/C(=C/CCCCC(=O)NO)COc1cccc2ccccc12.Cc1ccc(S(=O)(=O)O)cc1 [Toluensulfonic acid, para]
Initial appearance [1]: Foam
Appearance (stored at R.T. for 24 hrs) [1]: Gel-like

Structure (SMILES): O=S(=O)(O)c1ccccc1 [Benzensulfonic acid]
Initial appearance [1]: Foam
Appearance (stored at R.T. for 24 hrs) [1]: Gel-like

Structure (SMILES): CN(C)CCCNC(=O)/C(=C/CCCCC(=O)NO)COc1cccc2ccccc12.CS(=O)(=O)O [Methanensulfonic acid]
Initial appearance [1]: Foam
Appearance (stored at R.T. for 24 hrs) [1]: Gel-like

Structure (SMILES): CN(C)CCCNC(=O)/C(=C/CCCCC(=O)NO)COc1cccc2ccccc12.O=C(O)C(F)(F)F [Trifluoracetic acid]
Initial appearance [1]: Ge-1ike
Appearance (stored at R.T. for 24 hrs) [1]: Gel-like

Structure (SMILES): O=S(=O)(O)c1ccc2ccccc2c1 [Naphthalene-2-sulfonic acid]
Initial appearance [1]: Powder
Appearance (stored at R.T. for 24 hrs) [1]: Gel-like

Structure (SMILES): CN(C)CCCNC(=O)/C(=C/CCCCC(=O)NO)COc1cccc2ccccc12.O=C(O)C(O)C(O)C(=O)O [Example 1, Alkylcarbamoyl Naphthalenyloxy Octenoyl Hydroxyamide Tartaric Acid Salt]
Initial appearance [1]: Powder
Appearance (stored at R.T. for 24 hrs) [1]: Powder
change in appearance (text summary of Table 4) [1]: no change in appearance was observed
increase in moisture content [2]: 2%
Appearance [3, 6]: Gel-like
Appearance [3, 7]: Gel-like
Appearance [3, 8]: Powder
Appearance ([3]; 1 day, Severe (60±2° C.)): Powder
Appearance ([3]; Initial value): Powder
amount of formation of the related substances ([4]; according to temperature and storage period, FIGS. 4 and 5): maintained in a certain range at a relatively low temperature
change (increase) in the amount of related substances [4]: 0.05%
Content (bottle package, 1 day, Acceleration (40±2° C. and 75±5% RH)): 89.1
Content (bottle package, 1 day, Long-term (25±2° C. and 60±5% RH)): 99.1
Content (bottle package, 3 days, Acceleration (40±2° C. and 75±5% RH)): 84.0
Content (bottle package, 3 days, Long-term (25±2° C. and 60±5% RH)): 84.1
Content (bottle package, 7 days, Acceleration (40±2° C. and 75±5% RH)): 78.5
Content (bottle package, 7 days, Long-term (25±2° C. and 60±5% RH)): 78.5
change in content (text summary of Tables 7 and 8) (open state and bottle package, all storage conditions): maintained constant at room temperature regardless of the packaging state
Content (open state, 1 day, Acceleration (40±2° C. and 75±5% RH)): 92.3
Content (open state, 3 days, Severe (60±2° C.)): 97.2
Content (open state, 7 days, Room temperature): 100.1
Content (open state, 7 days, Severe (60±2° C.)): 89.1
Content (open state, Initial value): 98.9
Content (polyethylene bottle package (added silica gel), Initial value): 98.9

Structure (SMILES): O=C(O)c1ccccc1 [Benzoic acid]
Initial appearance [1]: Foam
Appearance (stored at R.T. for 24 hrs) [1]: Gel-like

Structure (SMILES): CN(C)CCCNC(=O)/C(=C/CCCCC(=O)NO)COc1cccc2ccccc12 [Comparative Example 1, alkylcarbamoyl naphthalenyloxy octenoyl hydroxyamide]
Solubility ([5]; 1,4-dioxane, 20° C.): 72.3 mg/mL (≈ 169 mM)
Solubility ([5]; 1,4-dioxane, 50° C.): 72.3 mg/mL (≈ 169 mM)
Solubility ([5]; 1-butanol, 20° C.): >58.8 mg/mL
Solubility ([5]; 2-propanol, 20° C.): 73.8 mg/mL (≈ 173 mM)
Solubility ([5]; 2-propanol, 50° C.): 77.3 mg/mL (≈ 181 mM)
Solubility ([5]; Acetone, 20° C.): 43.3 mg/mL (≈ 101 mM)
Solubility ([5]; Acetone, 50° C.): 43.7 mg/mL (≈ 102 mM)
Solubility ([5]; Acetonitrile, 20° C.): 6.1 mg/mL (≈ 14.3 mM)
Solubility ([5]; Acetonitrile, 50° C.): 16.5 mg/mL (≈ 38.6 mM)
Solubility ([5]; Butan-2-ol, 20° C.): 39.6 mg/mL (≈ 92.6 mM)
Solubility ([5]; Butan-2-ol, 50° C.): 72.0 mg/mL (≈ 168 mM)
Solubility ([5]; Chloroform, 20° C.): >80.7 mg/mL
Solubility ([5]; Dimethyl sulfoxide, 20° C.): >70.6 mg/mL
Solubility ([5]; Ethanol, 20° C.): >77.4 mg/mL
Solubility ([5]; Ethyl acetate, 20° C.): 4.6 mg/mL (≈ 10.8 mM)
Solubility ([5]; Ethyl acetate, 50° C.): 20.3 mg/mL (≈ 47.5 mM)
Solubility ([5]; Methanol, 20° C.): >68.4 mg/mL
Solubility ([5]; Methylene Ketone, 20° C.): 66.6 mg/mL (≈ 156 mM)
Solubility ([5]; Methylene Ketone, 50° C.): 69.7 mg/mL (≈ 163 mM)
Solubility ([5]; N,N-dimethylformamide, 20° C.): >76.6 mg/mL
Solubility ([5]; Propanol, 20° C.): >70.3 mg/mL
Solubility ([5]; Tert-butylmethyl ether, 20° C.): 0.8 mg/mL (≈ 1.87 mM)
Solubility ([5]; Tert-butylmethyl ether, 50° C.): 0.8 mg/mL (≈ 1.87 mM)
Solubility ([5]; Tetrahydrofuran, 20° C.): >74.0 mg/mL
Solubility ([5]; Toluene, 20° C.): 1.0 mg/mL (≈ 2.34 mM)
Solubility ([5]; Toluene, 50° C.): 3.3 mg/mL (≈ 7.72 mM)
Initial appearance [1]: Foam
Appearance (stored at R.T. for 24 hrs) [1]: Gel-like
increase in moisture content [2]: about 3%
Appearance [3, 6]: Gel-like
Appearance [3, 7]: Gel-like
Appearance [3, 8]: Gel-like
Appearance ([3]; 1 day, Severe (60±2° C.)): Gel-like
Appearance ([3]; Initial value): Foam
change in appearance (Table 6) ([3]; storage conditions of Table 6): changed from initial foam such as a sponge to a highly viscous liquid or gel structure
change (increase) in the amount of related substances [4]: about 10%

Structure (SMILES): O=C(O)/C=C/C(=O)O [Fumaric acid]
Initial appearance [1]: Powder
Appearance (stored at R.T. for 24 hrs) [1]: Gel-like

Structure (SMILES): O=C(O)/C=C\C(=O)O [Maleic acid]
Initial appearance [1]: Foam
Appearance (stored at R.T. for 24 hrs) [1]: Gel-1ike

Structure (SMILES): CN(C)CCCNC(=O)/C(=C/CCCCC(=O)NO)COc1cccc2ccccc12.O=C(O)[C@H](O)[C@@H](O)[C@H](O)[C@H](O)CO [Gluconic acid, (D−)]
Initial appearance [1]: Powder
Appearance (stored at R.T. for 24 hrs) [1]: Gel-like

More lines, now with the values ahead:

Initial appearance [1]: Foam
Appearance (stored at R.T. for 24 hrs) [1]: Gel-like
Structure (SMILES): O=C(O)CC(O)(CC(=O)O)C(=O)O [Citric acid]

Initial appearance [1]: Foam
Appearance (stored at R.T. for 24 hrs) [1]: Gel-like
Structure (SMILES): CCS(=O)(=O)O [Ethanesulfonic acid]

Initial appearance [1]: Powder
Appearance (stored at R.T. for 24 hrs) [1]: Gel-like
Structure (SMILES): O=C(O)CCC(=O)O [Succinic acid]

Initial appearance [1]: Powder
Appearance (stored at R.T. for 24 hrs) [1]: Gel-like
Structure (SMILES): O=C(O)c1ccc2ccccc2c1O [Naphthoic acid, 1-hydroxy-2]

Initial appearance [1]: Foam
Appearance (stored at R.T. for 24 hrs) [1]: Gel-like
Structure (SMILES): O=C(O)CNC(=O)c1ccccc1 [Hippuric acid]

Initial appearance [1]: Foam
Appearance (stored at R.T. for 24 hrs) [1]: Gel-like
Structure (SMILES): CC(=O)O [Acetic acid]

Initial appearance [1]: Powder
Appearance (stored at R.T. for 24 hrs) [1]: Powder
change in appearance (text summary of Table 4) [1]: no change in appearance was observed
Structure (SMILES): CCCCCCCCCCCCCCCCCC(=O)O [Stearic acid]
